# Laboratory results taken from US7691382B2, “Antiviral polypeptides comprising tandem repeats of APOE 141-149 and variants thereof” (priority 2003, dated 2010).
# pIC50: −log10 of the molar value. Like-named read-outs stand apart in the source and are kept apart here. Peptide text beside a SMILES is read from it.
# System: HSV1
# Assay type: cell-based, Human herpes simplex virus type 1
# Conditions: for efficacy for reducing HSV1 infectivity (in words): Examples 2 and 3
# Method: African Green Monkey Kidney (Vero) cells were maintained in Eagle's minimum essential medium with Earle's salt (EMEM) and supplemented with 10% foetal calf serum (heat-inactivated), 4 mM L-glutamine, and 1% (v/v) nonessential amino acids, plus penicillin and streptomycin (100 IU/mg and […], respectively) (maintenance medium referred to as 10% EMEM). The cells were incubated at 37° C. in a humidified atmosphere of air with 5% CO2.
# On harvesting, monolayers were washed in phosphate-buffered saline (PBS), and dislodged by incubating with trypsin in PBS for 30 min, before inactivating trypsin by addition of an equal volume of 10% EMEM and centrifuging at 500 g (5 min, 4° C.). Cell pellets were resuspended in 10% EMEM, prior to cell counting and seeding of 24-well plates. For antiviral assays, medium containing only 0.5% FCS was used (referred to as 0.5% EMEM).
# Three separate passages of HSV1 virus were prepared by infecting Vero cells, and preparing semi-pure suspensions of virus from tissue culture supernatant and cell lysates, before freezing aliquots of virus at −85° C. Viral infectivity was assessed by carrying out plaque assays on serial dilutions of thawed aliquots (expressed in pfu/ml).
# Peptides were obtained in lyophilised form from a commercial supplier (AltaBioscience, University of Birmingham or Advanced Biomedical), and were produced at 5 micromole scale. N-terminals were protected by addition of an acetyl group, and the C-terminals were protected by addition of an amide group.
# Small quantities of peptide were weighed in sterile Eppendorf tubes, before addition of sufficient 0.5% EMEM to produce a 1.5 mM stock solution, which was frozen at −20° C. in aliquots.
# Vero cells were seeded at 125,000 cells per well in 10% EMEM, and were incubated overnight resulting in confluent monolayers. […] Virus stocks (p3) were thawed, and diluted in 0.5% EMEM such that there were around 100 pfu in 100 μl. Each 24-well plate was inoculated separately. Firstly 100 μl of virus stock was added to the peptide or control medium arranged on a 96-well plate. This was incubated at 37° C. for ten minutes before inoculation. Medium was removed from four wells of a 24-well plate containing confluent Vero, and the 200 μl inoculum added to the appropriate well. Once all wells were treated, the 24-well plate was incubated for a further 60-80 minutes. Finally the peptide-containing inoculum was removed, and 1 ml of 1% EMEM containing 1% carboxymethylcellulose was added to each well. Plates were incubated for a further 22 hours or in some experiments 40 hours, before removal of overlay, and addition of 10% formaldehyde in PBS. After a further one hour incubation, fixative was removed, monolayers washed several times with tap water, and stained with carbol fuchsin solubilised in water. After 30 minutes stain was removed, and plates washed several times with tap water, before being air dried. Plaques were counted using an Olympus IX70 Inverting Microscope, and antiviral effect expressed as a percentage of the control value for each peptide concentration. The IC50 was calculated from plots of inhibitory effect against peptide concentration.
Compound,pIC50,further results
CSCC[C@H](NC(=O)[C@H](CCC(=O)O)NC(=O)[C@H](CCC(=O)O)NC(=O)[C@H](CCSC)NC(=O)[C@H](CCCNC(=N)N)NC(=O)[C@H](C)NC(=O)[C@H](CCCNC(=N)N)NC(=O)[C@H](CC(C)C)NC(=O)[C@H](CCCNC(=N)N)NC(=O)[C@H](CCSC)NC(=O)[C@H](CCC(=O)O)NC(=O)[C@H](CCC(=O)O)NC(=O)[C@H](CCSC)NC(=O)[C@H](CCCNC(=N)N)NC(=O)[C@H](C)NC(=O)[C@H](CCCNC(=N)N)NC(=O)[C@H](CC(C)C)NC(=O)[C@H](CCCNC(=N)N)NC(C)=O)C(N)=O [GIN 15] (Ac-RLRARMEEMRLRARMEEM-NH2),< 4.40,"efficacy for reducing HSV1 infectivity (in words): no, or poor, efficacy"
CC(=O)N[C@@H](CC(N)=O)C(=O)N[C@@H](CCCNC(=N)N)C(=O)N[C@@H](CCCCN)C(=O)N[C@@H](CC(N)=O)C(=O)N[C@@H](CCCNC(=N)N)C(=O)N[C@@H](CCCCN)C(=O)N[C@@H](CCCNC(=N)N)C(=O)N[C@@H](CC(N)=O)C(=O)N[C@@H](CC(N)=O)C(=O)N[C@@H](CC(N)=O)C(=O)N[C@@H](CCCNC(=N)N)C(=O)N[C@@H](CCCCN)C(=O)N[C@@H](CC(N)=O)C(=O)N[C@@H](CCCNC(=N)N)C(=O)N[C@@H](CCCCN)C(=O)N[C@@H](CCCNC(=N)N)C(=O)N[C@@H](CC(N)=O)C(=O)N[C@@H](CC(N)=O)C(N)=O [MU 11] (Ac-NRKNRKRNNNRKNRKRNN-NH2),4.56,
CC(=O)N[C@@H](Cc1ccc(O)cc1)C(=O)N[C@@H](CCCNC(=N)N)C(=O)N[C@@H](CCCCN)C(=O)N[C@@H](Cc1ccc(O)cc1)C(=O)N[C@@H](CCCNC(=N)N)C(=O)N[C@@H](CCCCN)C(=O)N[C@@H](CCCNC(=N)N)C(=O)N[C@@H](Cc1ccc(O)cc1)C(=O)N[C@@H](Cc1ccc(O)cc1)C(=O)N[C@@H](Cc1ccc(O)cc1)C(=O)N[C@@H](CCCNC(=N)N)C(=O)N[C@@H](CCCCN)C(=O)N[C@@H](Cc1ccc(O)cc1)C(=O)N[C@@H](CCCNC(=N)N)C(=O)N[C@@H](CCCCN)C(=O)N[C@@H](CCCNC(=N)N)C(=O)N[C@@H](Cc1ccc(O)cc1)C(=O)N[C@@H](Cc1ccc(O)cc1)C(N)=O [GIN 41] (Ac-YRKYRKRYYYRKYRKRYY-NH2),,efficacy for reducing HSV1 infectivity (in words): also had efficacy
CSCC[C@H](NC(=O)[C@H](CCSC)NC(=O)[C@H](CCCNC(=N)N)NC(=O)[C@H](CCCCN)NC(=O)[C@H](CCCNC(=N)N)NC(=O)[C@H](CCSC)NC(=O)[C@H](CCCCN)NC(=O)[C@H](CCCNC(=N)N)NC(=O)[C@H](CCSC)NC(=O)[C@H](CCSC)NC(=O)[C@H](CCSC)NC(=O)[C@H](CCCNC(=N)N)NC(=O)[C@H](CCCCN)NC(=O)[C@H](CCCNC(=N)N)NC(=O)[C@H](CCSC)NC(=O)[C@H](CCCCN)NC(=O)[C@H](CCCNC(=N)N)NC(=O)[C@H](CCSC)NC(C)=O)C(N)=O [GIN 40] (Ac-MRKMRKRMMMRKMRKRMM-NH2),< 4.52,
CC(=O)N[C@@H](CC(=O)O)C(=O)N[C@@H](Cc1c[nH]c2ccccc12)C(=O)N[C@@H](CC(C)C)C(=O)N[C@@H](CCCCN)C(=O)N[C@@H](C)C(=O)N[C@@H](Cc1ccccc1)C(=O)N[C@@H](Cc1ccc(O)cc1)C(=O)N[C@@H](CC(=O)O)C(=O)N[C@@H](CCCCN)C(=O)N[C@H](C(=O)N[C@@H](C)C(=O)N[C@@H](CCC(=O)O)C(=O)N[C@@H](CCCCN)C(=O)N[C@@H](CC(C)C)C(=O)N[C@@H](CCCCN)C(=O)N[C@@H](CCC(=O)O)C(=O)N[C@@H](C)C(=O)N[C@@H](Cc1ccccc1)C(N)=O)C(C)C [GIN 22] (Ac-DWLKAFYDKVAEKLKEAF-NH2),,"pIC50 (HSV1, Vero cells, Table 5 (Example 2), read-out: Apparent IC50): 4.44; pIC50 (HSV-1, Vero cells, Table 6 (Example 3), read-out: IC50): 4.44"
CC[C@H](C)[C@H](NC(=O)[C@@H](NC(=O)[C@H](CCCNC(=N)N)NC(=O)[C@H](CCCCN)NC(=O)[C@H](CCCNC(=N)N)NC(=O)[C@@H](NC(=O)[C@H](CCCCN)NC(=O)[C@H](CCCNC(=N)N)NC(=O)[C@@H](NC(=O)[C@@H](NC(=O)[C@@H](NC(=O)[C@H](CCCNC(=N)N)NC(=O)[C@H](CCCCN)NC(=O)[C@H](CCCNC(=N)N)NC(=O)[C@@H](NC(=O)[C@H](CCCCN)NC(=O)[C@H](CCCNC(=N)N)NC(=O)[C@@H](NC(C)=O)[C@@H](C)CC)[C@@H](C)CC)[C@@H](C)CC)[C@@H](C)CC)[C@@H](C)CC)[C@@H](C)CC)[C@@H](C)CC)C(N)=O [MU 8] (Ac-IRKIRKRIIIRKIRKRII-NH2),< 4.52,

# More lines, main results first:
pIC50,Compound,further results
5.12,CC(=O)N[C@@H](CCCNC(=N)N)C(=O)N[C@@H](CCCNC(=N)N)C(=O)N[C@@H](CCCCN)C(=O)N[C@@H](CCCNC(=N)N)C(=O)N[C@@H](CCCNC(=N)N)C(=O)N[C@@H](CCCCN)C(=O)N[C@@H](CCCNC(=N)N)C(=O)N[C@@H](CCCNC(=N)N)C(=O)N[C@@H](CCCNC(=N)N)C(=O)N[C@@H](CCCNC(=N)N)C(=O)N[C@@H](CCCNC(=N)N)C(=O)N[C@@H](CCCCN)C(=O)N[C@@H](CCCNC(=N)N)C(=O)N[C@@H](CCCNC(=N)N)C(=O)N[C@@H](CCCCN)C(=O)N[C@@H](CCCNC(=N)N)C(=O)N[C@@H](CCCNC(=N)N)C(=O)N[C@@H](CCCNC(=N)N)C(N)=O [MU 16] (Ac-RRKRRKRRRRRKRRKRRR-NH2),
4.76,CC(=O)N[C@@H](Cc1c[nH]c2ccccc12)C(=O)N[C@@H](CCCNC(=N)N)C(=O)N[C@@H](CCCCN)C(=O)N[C@@H](CC(C)C)C(=O)N[C@@H](CCCNC(=N)N)C(=O)N[C@@H](CCCCN)C(=O)N[C@@H](CCCNC(=N)N)C(=O)N[C@@H](CC(C)C)C(=O)N[C@@H](CC(C)C)C(=O)N[C@@H](CC(C)C)C(=O)N[C@@H](CCCNC(=N)N)C(=O)N[C@@H](CCCCN)C(=O)N[C@@H](CC(C)C)C(=O)N[C@@H](CCCNC(=N)N)C(=O)N[C@@H](CCCCN)C(=O)N[C@@H](CCCNC(=N)N)C(=O)N[C@@H](CC(C)C)C(=O)N[C@@H](CC(C)C)C(N)=O [MU 115] (Ac-WRKLRKRLLLRKLRKRLL-NH2),
5.48,CC(=O)N[C@@H](Cc1c[nH]c2ccccc12)C(=O)N[C@@H](CCCNC(=N)N)C(=O)N[C@@H](CCCCN)C(=O)N[C@@H](Cc1c[nH]c2ccccc12)C(=O)N[C@@H](CCCNC(=N)N)C(=O)N[C@@H](CCCCN)C(=O)N[C@@H](Cc1ccccc1)C(=O)N[C@@H](Cc1ccccc1)C(=O)N[C@@H](Cc1ccccc1)C(=O)N[C@@H](CCCNC(=N)N)C(=O)N[C@@H](CCCCN)C(=O)N[C@@H](Cc1c[nH]c2ccccc12)C(=O)N[C@@H](CCCNC(=N)N)C(=O)N[C@@H](CCCCN)C(=O)N[C@@H](CCCNC(=N)N)C(=O)N[C@@H](Cc1c[nH]c2ccccc12)C(=O)N[C@@H](Cc1c[nH]c2ccccc12)C(N)=O [MU 116] (Ac-WRKWRKFFFRKWRKRWW-NH2),
5.12,CC(=O)N[C@@H](CCCCN)C(=O)N[C@@H](CCCNC(=N)N)C(=O)N[C@@H](CCCCN)C(=O)N[C@@H](CCCCN)C(=O)N[C@@H](CCCNC(=N)N)C(=O)N[C@@H](CCCCN)C(=O)N[C@@H](CCCNC(=N)N)C(=O)N[C@@H](CCCCN)C(=O)N[C@@H](CCCCN)C(=O)N[C@@H](CCCCN)C(=O)N[C@@H](CCCNC(=N)N)C(=O)N[C@@H](CCCCN)C(=O)N[C@@H](CCCCN)C(=O)N[C@@H](CCCNC(=N)N)C(=O)N[C@@H](CCCCN)C(=O)N[C@@H](CCCNC(=N)N)C(=O)N[C@@H](CCCCN)C(=O)N[C@@H](CCCCN)C(N)=O [MU 18] (Ac-KRKKRKRKKKRKKRKRKK-NH2),
5.40,CC(=O)N[C@@H](Cc1c[nH]c2ccccc12)C(=O)N[C@@H](CCCNC(=N)N)C(=O)N[C@@H](CCCCN)C(=O)N[C@@H](Cc1c[nH]c2ccccc12)C(=O)N[C@@H](CCCNC(=N)N)C(=O)N[C@@H](CCCCN)C(=O)N[C@@H](CCCNC(=N)N)C(=O)N[C@@H](Cc1c[nH]c2ccccc12)C(=O)N[C@@H](Cc1c[nH]c2ccccc12)C(=O)N[C@@H](Cc1ccccc1)C(=O)N[C@@H](CCCNC(=N)N)C(=O)N[C@@H](CCCCN)C(=O)N[C@@H](Cc1c[nH]c2ccccc12)C(=O)N[C@@H](CCCNC(=N)N)C(=O)N[C@@H](CCCCN)C(=O)N[C@@H](CCCNC(=N)N)C(=O)N[C@@H](Cc1c[nH]c2ccccc12)C(=O)N[C@@H](Cc1c[nH]c2ccccc12)C(N)=O [MU 60] (Ac-WRKWRKRWWFRKWRKRWW-NH2),
